Data from US7759313B2, “Induction method for cell differentiation” (Obschetstvo S Ogranichennoi Otvetstvennostiyu …, priority 2002, dated 2010).

Tests used:
M-6 melanoma = test: Melanin genesis intensity in M-6 melanoma cells (electronic microscopy); format: in vivo, human; conditions: for Average amount of melanosomes per a cell / MGII / Number of cells with melanosomes (per 500 cells): 1.0 mg/kg daily
Procedure: The study was conducted on 10-12 week old thymus free (nude) female Balb/C mice weighing 20-22 grams (breeding of the Russian Cancer Research Center (RCRC) named after N. N. Blokhin of the Russian Academy of Medical Sciences (RAMS)). A human melanoma strain earlier obtained from primary clinical material was taken from the bank of tumor strains of the RCRC of the RAMS for transplantation to thymus free “nude” mice. Tumor was disintegrated by Versen solution with vital Trypan blue staining and inoculated subcutaneously to mice in the amount of 1.6 million cells per mouse.
Dicarbamine was administered to mice intragastrically using a metal probe daily at dose 1.0 mg/kg beginning 4 days before the tumor inoculation and thereafter for 10-11 days (administration course up to 15 days). The mice were sacrificed with ether anesthesia in 12, 24 and 48 hours after the last administration.
The effect of Dicarbamine on melanoma cell differentiation was assessed on the basis of the intensity of melanin genesis by counting the number of cells with melanin in the tumor slices. With this goal, tumors were excised from the mice, placed into glutaraldehyde and histologically processed for electronic microscopy. The Melanin Genesis Intensity Index (MGII), which reflects the degree of cell differentiation, was calculated in the prepared slices according to the following equation: MGII=NCM×NM,
wherein: NCM is the number of cells containing melanosomes;
NM is average number of melanosomes per a cell.

Friend erythroblastosis = test: Friend erythroblastosis, electronic microscopy of cell types; format: in vivo, mice
Procedure: Friend erythroblastosis which was inoculated subcutaneously to DBA2 female mice via spleen cells was investigated.
Group 2—Reaferon at dose 100 thousand IU/kg was administered daily s.c. from day 3 to day 7 after inoculation;
Group 3—Dicarbamine at a single dose 4.5 mg/kg was administered p.o. from day 3 to day 7 after inoculation;
Group 4—Dicarbamine and Reaferon were administered simultaneously according to a similar scheme.
Material for light microscopy was taken from sacrificed animals at days 3, 7 and 14 after termination of therapy or administration of a physiological saline. Material for electronic microscopy was taken at days 7 and 14.
For electronic microscopy, tumor pieces were fixed in a 2.5% glutaraldehyde solution and 1% osmium tetroxide and embedded in EPON-812. Semi-thin and ultra-thin slices were prepared on the LKB-III ultratome (Sweden). The obtained semi-thin slices were stained with Toluidine blue and examined through the light microscope. Ultra-thin slices were additionally stained with uranyl acetate and lead citrate; the slices examined and photographed in the JEOL 1200 EX-II electronic microscope (Japan).
The percentage of cells with different types of differentiation (blast cells, lymphocytes and granular leukocytes) was calculated during electronic microscopy for quantitative assessment.

Compound: O=C(O)CCCC(=O)NCCc1c[nH]cn1 [Dicarbamine]
- Average amount of melanosomes per a cell (M-6 melanoma; 12 hours since withdrawal): 28.0
- MGII (M-6 melanoma; 12 hours since withdrawal): 9.8
- Number of cells with melanosomes (per 500 cells) (M-6 melanoma; 12 hours since withdrawal): 175.0
- Average amount of melanosomes per a cell (M-6 melanoma; 24 hours since withdrawal): 35.0
- MGII (M-6 melanoma; 24 hours since withdrawal): 14.7
- Number of cells with melanosomes (per 500 cells) (M-6 melanoma; 24 hours since withdrawal): 210.0
- Average amount of melanosomes per a cell (M-6 melanoma; 48 hours since withdrawal): 42.0
- MGII (M-6 melanoma; 48 hours since withdrawal): 19.0
- Number of cells with melanosomes (per 500 cells) (M-6 melanoma; 48 hours since withdrawal): 227.0
- average increase of M-6 melanoma tumor cell differentiation degree (MGII) (M-6 melanoma; following a 15 day course): 2.2 fold
- increase in the number of cells comprising melanosomes (M-6 melanoma; following a 15 day course): 1.3 fold
- increase in the number of melanosomes (M-6 melanoma; following a 15 day course): 1.3 fold
- MGII index increase vs control (M-6 melanoma; in 12 hours): 1.9 fold
- MGII index increase vs control (M-6 melanoma; in 24 hours): 2.4 fold
- MGII index increase vs control (M-6 melanoma; in 48 hours): 2.3 fold
- decrease of the quantity of immature tumor cells vs control (Friend erythroblastosis; Dicarbamine 4.5 mg/kg): 15-20%
- increase of the quantity of lymphocytes vs control (Friend erythroblastosis; Dicarbamine 4.5 mg/kg): 4 fold
- number of lymphocytes (Friend erythroblastosis; Dicarbamine + Reaferon): 18-25%
- quantity of large blast type cells (Friend erythroblastosis; Dicarbamine + Reaferon): 70-80%
- quantity of leukocytes (granular) (Friend erythroblastosis; Dicarbamine + Reaferon): 2-5%
- quantity of granulocytes (granular leukocytes) (Friend erythroblastosis; single agent): 2-5%
- quantity of lymphocytes (lymphoid cells) (Friend erythroblastosis; single agent): 18-25%
- quantity of large blast type cells (Friend erythroblastosis; single agent (Dicarbamine 4.5 mg/kg p.o. or Reaferon 100 thousand IU/kg s.c., days 3-7)): 70-80%
